Values after ≈ are worked out from the molar mass of the structure shown. Bridge positions count the residues as written; N and C are the ends. Square brackets hold non-standard residues; d marks the D form. Peptide text beside a SMILES is read from it. * marks the point of attachment. X1 = CC[C@H](C)CCCCC(=O)*; Dab = NCC[C@H](N)C(=O)O
Experiments:
Staphylococcus aureus [1] = test: Antibacterial activity against methicillin-resistant Staphylococcus aureus ATCC 43300 assessed as inhibition of bacterial growth incubated for 16 to 18 hrs by broth microdilution method; format: functional; conditions: time 16-18 hrs
Staphylococcus aureus [2] = test: Antibacterial activity against Staphylococcus aureus ATCC 25923 assessed as inhibition of bacterial growth incubated for 16 to 18 hrs by broth microdilution method; format: functional; conditions: time 16-18 hrs
Escherichia coli = test: Antibacterial activity against Escherichia coli ATCC 25922 assessed as inhibition of bacterial growth incubated for 16 to 18 hrs by broth microdilution method; format: functional; conditions: time 16-18 hrs
Erythrocyte = test: Hemolytic activity in rabbit erythrocytes incubated for 1 hr; format: toxicity, cell-based, Oryctolagus cuniculus
[3] = Selectivity ratio of HC5 for hemolytic activity in rabbit erythrocytes to MIC for antibacterial activity against methicillin-resistant Staphylococcus aureus ATCC 43300; format: toxicity, cell-based
Acinetobacter baumannii = test: Antibacterial activity against Acinetobacter baumannii ATCC 19606 assessed as inhibition of bacterial growth incubated for 16 to 18 hrs by broth microdilution method; format: functional; conditions: time 16-18 hrs
Pseudomonas aeruginosa = test: Antibacterial activity against Pseudomonas aeruginosa ATCC 27853 assessed as inhibition of bacterial growth incubated for 16 to 18 hrs by broth microdilution method; format: functional; conditions: time 16-18 hrs
Klebsiella pneumoniae = test: Antibacterial activity against Klebsiella pneumoniae CMCC(B) 46117 assessed as inhibition of bacterial growth incubated for 16 to 18 hrs by broth microdilution method; format: functional; conditions: time 16-18 hrs

Structure (SMILES) | MIC (Staphylococcus aureus [1]) [µg/mL] | MIC (Staphylococcus aureus [2]) [µg/mL] | MIC (Escherichia coli) [µg/mL] | HC5 (Erythrocyte) [µg/mL] | selectivity ratio [3] | MIC (Acinetobacter baumannii) [µg/mL] | MIC (Pseudomonas aeruginosa) [µg/mL] | MIC (Klebsiella pneumoniae) [µg/mL]
CCn1cc(C(=O)O)c(=O)c2cc(F)c(N3CCNCC3)cc21 [NORFLOXACIN] | 1 (≈ 3.13 µM) | 1 (≈ 3.13 µM) |  |  |  |  |  | 
CCCCCC[n+]1ccn(-c2ccc(/C=C/c3ccc(-n4cc[n+](CCCCCC)c4)cc3)cc2)c1.[Br-].[Br-] | 1 | 1 | 2 | 600 | 600 |  |  | 
CC[C@H](C)CCCCC(=O)N[C@@H](CCN)C(=O)N[C@H](C(=O)N[C@@H](CCN)C(=O)N[C@H]1CCNC(=O)[C@H]([C@@H](C)O)NC(=O)[C@H](CCN)NC(=O)[C@H](CCN)NC(=O)[C@H](CC(C)C)NC(=O)[C@@H](Cc2ccccc2)NC(=O)[C@H](CCN)NC1=O)[C@@H](C)O (X1-[Dab]T[Dab][Dab][Dab][dF]L[Dab][Dab]T; lactam 4-C) |  |  | 1 (≈ 0.831 µM) |  |  | 1 (≈ 0.831 µM) | 1 (≈ 0.831 µM) | 1 (≈ 0.831 µM)
CCCCCCCC[n+]1ccn(-c2ccc(C#Cc3ccc(-n4cc[n+](CCCCCCCC)c4)cc3)cc2)c1.[Br-].[Br-] | 1 | 1 | 1 | 200 | 200 |  |  | 
